The values that follow are results of earlier work, collected in PMC5988656, “Phase I studies of AZD1208, a proviral integration Moloney virus kinase inhibitor in solid and haematological cancers” (British Journal of Cancer, 2018).

Each structure is given as a SMILES string.

The subject of data set [1] is relapsed/refractory multiple myeloma (RRMM). Particulars: in vivo; cited from earlier work.
For data set [2], the system named is refractory prostate cancer and relapsed/refractory non-Hodgkin lymphoma. Set-up: method as in ClinicalTrials.gov, NCT00848601. Conditions: ref ClinicalTrials.gov, NCT00848601; cited from earlier work.

In the case of `C[C@@H]1C[C@H](N)C[C@H](c2ccncc2NC(=O)c2ccc(F)c(-c3c(F)cccc3F)n2)C1` [LGH447], in data set [1], the DLT fatigue was 2 n, the DLT hypophosphatemia was 1 n, the DLT thrombocytopenia is 4 n and the DLT vasovagal syncope was 1 n. In data set [1], the DLTs result is reported as “eight”.

In the case of `CN1CCC(CNc2ccc3ncc(-c4cccc(OC(F)(F)F)c4)n3n2)CC1` [SGI-1776], the “Outcome of clinical development” value in data set [2] was “discontinued because of QTc prolongation”.
